Laboratory results reported in patent US6750349B2, “Gastrokinetic monocyclic benzamides of 3-or 4-substituted 4-(aminoethyl)-piperidine derivatives” (Janssen Pharmaceutics, N.V., priority 1997, dated 2004).

System: conscious dogs
Assay: Gastric emptying of an acaloric liquid test meal delayed by administration of lidamidine, in conscious dogs
Format: in vivo, beagle dogs
Conditions: conscious dog; for ΔT/T^b (acceleration of gastric emptying of a liquid meal delayed by lidamidine): dose of 0.0025 mg/kg; for ΔT/T^a (acceleration of gastric emptying of a liquid meal delayed by lidamidine): dose of 0.01 mg/kg
Description: C.1. Gastric Emptying of an Acaloric Liquid Test Meal Delayed by Administration of Lidamidine, in Conscious Dogs
Female beagle dogs, weighing 7-14 kg, were trained to stand quietly in Pavlov frames. They were implanted with a gastric cannula under general anesthesia and aseptic precautions. After a median laparatomy, an incision was made through the gastric wall in the longitudinal direction between the greater and the lesser curve, 2 cm above the nerves of Latarjet. The cannula was secured to the gastric wall by means of a double purse string suture and brought out via a stab wound at the left quadrant of the hypochondrium. Dogs were allowed a recovery period of at least two weeks. Experiments were started after a fasting period of 24 hours, during which water was available ad libitum. At the beginning of the experiment, the cannula was opened in order to remove any gastric juice or food remnants.
The stomach was cleansed with 40 to 50 ml lukewarm water. The test compound was administered I.V. (in a volume≦3 ml via the vena cephalica), S. C. (in a volume≦3 ml) or P. O. (in a volume of 1 ml/kg body weight, applied intragastrically via the cannula with a device that filled the lumen of the cannula; after injection of the test compound, 5 ml NaCl 0.9% was injected in order to correct for the dead space in the injection system). Immediately after administration of the test compound or its solvent, lidamidine 0.63 mg/kg was administered subcutaneously. 30 min later, the cannula was opened to determine the amount of fluid present in the stomach, promptly followed by reintroduction of the fluid. Then the test meal was administered via the cannula. This test meal consisted of 250 ml distilled water containing glucose (5 g/l) as a marker. The cannula remained closed for 30 min, whereafter the gastric contents were drained from the stomach to measure total volume (t=30 min). For later analysis 1 ml of the gastric contents was taken, promptly followed by reintroduction of the rest volume into the stomach. This sequence was repeated 4 times with 30 min intervals (t=60, 90, 120, 150 min).
In the 1 ml samples of the gastric contents, the glucose concentrations were measured on a Hitachi 717 automatic analyzer by the hexokinase method (Schmidt, 1961).
Curves were fitted to the measurement points (glucose versus time) using weighed non-linear regression analysis. Gastric emptying was quantified as the time needed to empty 70% of the meal (t70%). The control emptying time was calculated as the mean t70% of the last 5 solvent experiments of the same dog. Acceleration of delayed gastric emptying (Δt) was calculated as the time difference between t70% compound and t70% solvent. To correct for variations in emptying rate between dogs, Δt was expressed as % of t70% solvent (Schuurkes et al, 1992)).

[1] = compounds, Δt = t70% compound minus t70% solvent, relative to t70% solvent

| SMILES | ΔT/T^b (acceleration of gastric emptying of a liquid meal delayed by lidamidine) [1] | ΔT/T^a (acceleration of gastric emptying of a liquid meal delayed by lidamidine) [1] | ΔT/T^b (acceleration of gastric emptying of a liquid meal delayed by lidamidine) (intermediates) | ΔT/T^a (acceleration of gastric emptying of a liquid meal delayed by lidamidine) (intermediates) |
| --- | --- | --- | --- | --- |
| CCCCN1CC[C@@H](CNC(=O)c2cc(Cl)c(N)c(OC)c2OC)[C@H](O)C1.O (racemic) [Compound 9, (±)-trans-4-amino-N-[(1-butyl-3-hydroxy-4-piperidinyl)methyl] -5-chloro-2,3-dimethoxybenzamide monohydrate] | −0.29 | −0.55 | −0.40 | −0.31 |
| COCCCN1CC[C@@H](CNC(=O)c2cc(Cl)c(N)c(OC)c2OC)[C@H](O)C1 (racemic) [Compound 11, (±)-trans-4-amino-5-chloro-N-[[3-hydroxy-1-(3-methoxypropyl)-4-piperidinyl]methyl]-2,3-dimethoxybenzamide] | −0.62 | −0.59 | – | – |
| COc1c(C(=O)NC[C@@H]2CCN(CCCC(C)=O)C[C@H]2O)cc(Cl)c(N)c1OC.O (racemic) [Compound 14, (±)-trans-4-amino-5-chloro-N-[[3-hydroxy-1-(4-oxopentyl)-4-piperidinyl]methyl]-2,3-dimethoxybenzamide monohydrate] | −0.52 | −0.67 | – | – |
